Data from patent US12128105B2, “Molecular degraders of extracellular proteins” (priority 2021, dated 2024).

Experiments:
[1] = test system: α-DNP antibody / ASGPR on hepatocytes; test: Ternary complex formation between hepatocytes and α-DNP antibody; format: cell-based
α-DNP antibody [2] = test: Endocytosis of α-DNP antibody in hepatocytes; format: cell-based; details: FIG. 6C; 12 hour time point
α-DNP antibody [3] = test: Colocalization microscopy studies (Alexa 488 signal, EEA1/LAMP2); format: cell-based; details: FIG. 7A
Description: Cells were grown in 8-well microscope cell culture containers (Thermo, 177402) treated with polylysine (Fisher Scientific, 343810001). For all experiments, D-MoDE-A was used at a final concentration of 40 nM, and antibody was used at a final concentration of 100 nM. At 12 hours, cell culture media was removed and cells were washed with PBS once before fixation with 3.5% formaldehyde PBS solution for 13 minutes. Cells were then washed with PBS, and permeabilized for 5 minutes with 0.5% triton X-100 in PBS. Cells were blocked with 0.2% tween in TBS (Tween 20, AmericanBio, Ref AB02038-00500) and 3% BSA (Sigma, A9418) for one hour at room temperature. […] After incubation for 1 hour in a humidified chamber protected from light, cells were washed 3× with PBST for 5 minutes each. Cells were then treated with Alexa Fluor 568-labeled secondary antibody (Abcam, ab175473) at 1:500 dilution. Cells were washed 3× with PBST for 5 minutes each, then treated with PBS containing Hoechst stain (final concentration 1 μg/mL), incubated at room temperature for at least 10 minutes, and imaged. Cells were visualized using a Zeiss Axio Observer Z1 inverted microscope using 63× magnification under oil. Image analysis was performed on ZEN2 (blue edition) version 2.0.0.0.

α-DNP antibody [4] = test: In vivo serum levels of α-DNP antibody in mice (ELISA); details: FIG. 8D, single variable dose
Description: In vivo experiments were performed under Yale University IACUC supervision following protocol entitled “pre-clinical evaluation of small molecule immunomodulators” (Protocol number 2017-11445). Experiments were performed in male nude mice purchased from Jackson Laboratory (NU/J, Stock No. 002019). Compounds were administered i.p. in a volume of 100 μL PBS. Approximately 25 μL of blood was collected at each time point by saphenous bleed. Antibody was administered as 40 μg in 100 μL i.p. Compounds were administered daily at the specified dose throughout the course of experiments. For data analysis, antibody levels were normalized to the recorded concentration of antibody observed in each mouse 24 hours after the i.p. administration.
ELISA analysis of serum samples was performed using MaxiSorp 96 well plates (Thermo, 44-2404-21). Plates were coated with 50 μL of BSA-DNP (Invitrogen, A23018) at 100 ug/mL in PBS and incubated at 4° C. overnight. Coating solution was then removed, and the plates were blocked with 2% BSA in PBS for 2 hours at room temperature, followed by washing twice with PBST (0.2% Tween). Serum samples were diluted in 2% BSA in PBS. […] The plates were then treated with TMB (Thermo 34028) followed by 2 M H2SO4 and analyzed for OD at 450 nm on a plate reader (BioTek Synergy 2). Sample concentrations were determined against a standard curve.

## CC(=O)N[C@H]1[C@H](OCCOCCOCCNC(=O)CCOCC(COCCC(=O)NCCOCCOCCO[C@@H]2O[C@H](CO)[C@H](O)[C@H](O)[C@H]2NC(C)=O)(COCCC(=O)NCCOCCOCCO[C@@H]2O[C@H](CO)[C@H](O)[C@H](O)[C@H]2NC(C)=O)NC(=O)CNC(=O)COCCOCCOCCNc2ccc([N+](=O)[O-])cc2[N+](=O)[O-])O[C@H](CO)[C@H](O)[C@@H]1O [D-MoDE-A]
[1]; FIG. 6A
  formation of a ternary complex between hepatocytes and α-DNP antibody: dependent on the concentration of D-MoDE-A
[1]; FIG. 6B
  ternary complex formation in presence of competitive binders of ASGPR or α-DNP antibody: inhibited by competitive binders of either ASGPR or α-DNP antibody
α-DNP antibody [2]
  endocytosis of α-DNP antibody in hepatocytes: dependent on both α-DNP antibody and DMoDE-A concentration
α-DNP antibody [3]
  Alexa 488 signal in colocalization studies: dependent on the presence of α-DNP antibody and D-MoDE-A
α-DNP antibody [4]
  serum levels of α-DNP antibody: decrease in serum levels of α-DNP antibody
